≈ marks a conversion by molar mass, not a printed value.
Experiments:
[1] = Cmax in healthy human male at 4 mg/kg, iv every 24 hrs by LC/MS/MS analysis; assay type: ADME, organism-based; design: dose 4 mg/kg, route intravenous; conditions: in vivo
Enterococcus faecalis [2] = assay: Antimicrobial activity against vancomycin-susceptible Enterococcus faecalis ATCC 29212 by broth dilution method; assay type: functional
Enterococcus faecium [3] = assay: Antimicrobial activity against vancomycin-resistant Enterococcus faecium ATCC 51559 by broth dilution method; assay type: functional
Enterococcus faecalis [4] = assay: Antimicrobial activity against vancomycin-resistant Enterococcus faecalis ATCC 51299 by broth dilution method; assay type: functional
Enterococcus faecalis [5] = assay: Antimicrobial activity against vancomycin-resistant Enterococcus faecalis 1058946 by broth dilution method; assay type: functional
Enterococcus faecium [6] = assay: Antimicrobial activity against vancomycin-resistant Enterococcus faecium 1119175 by broth dilution method; assay type: functional
Enterococcus faecium [7] = assay: Antimicrobial activity against vancomycin-resistant Enterococcus faecium 1059060 by broth dilution method; assay type: functional
Enterococcus faecalis [8] = assay: Antimicrobial activity against vancomycin-susceptible Enterococcus faecalis ATCC 29212 by broth dilution method in presence of 4% HSA; assay type: functional
Enterococcus faecium [9] = assay: Antimicrobial activity against vancomycin-resistant Enterococcus faecium ATCC 51559 by broth dilution method in presence of 4% HAS; assay type: functional
Enterococcus faecalis [10] = assay: Antimicrobial activity against vancomycin-resistant Enterococcus faecalis ATCC 51299 by broth dilution method in presence of 4% HSA; assay type: functional
Enterococcus faecalis [11] = assay: Antimicrobial activity against vancomycin-resistant Enterococcus faecalis 1058946 by broth dilution method in presence of 4% HSA; assay type: functional
Enterococcus faecium [12] = assay: Antimicrobial activity against vancomycin-resistant Enterococcus faecium 1119175 by broth dilution method in presence of 4% HSA; assay type: functional
Enterococcus faecium [13] = assay: Antimicrobial activity against vancomycin-resistant Enterococcus faecium 1059060 by broth dilution method in presence of 4% HSA; assay type: functional
Enterococcus faecalis [14] = assay: Selectivity ratio of MIC for Enterococcus faecalis ATCC 29212 in presence of 4% HSA to MIC for Enterococcus faecalis ATCC 29212; assay type: functional
Enterococcus faecium [15] = assay: Selectivity ratio of MIC for Enterococcus faecium ATCC 51559 in presence of 4% HSA to MIC for Enterococcus faecium ATCC 51559; assay type: functional
Enterococcus faecalis [16] = assay: Selectivity ratio of MIC for Enterococcus faecalis ATCC 51299 in presence of 4% HSA to MIC for Enterococcus faecalis 51299; assay type: functional
Enterococcus faecalis [17] = assay: Selectivity ratio of MIC for Enterococcus faecalis 1058946 in presence of 4% HSA to MIC for Enterococcus faecalis 1058946; assay type: functional
Enterococcus faecium [18] = assay: Selectivity ratio of MIC for Enterococcus faecium 1119175 in presence of 4% HSA to MIC for Enterococcus faecium 1119175; assay type: functional
Enterococcus faecium [19] = assay: Selectivity ratio of MIC for Enterococcus faecium 1059060 in presence of 4% HSA to MIC for Enterococcus faecium 1059060; assay type: functional
Enterococcus faecium [20] = assay: Bactericidal activity against vancomycin-resistant Enterococcus faecium 1119175 expressing vanB gene assessed as change in bacterial count at 4 ug/ml by time-kill assay; assay type: functional
Enterococcus faecium [21] = assay: Bactericidal activity against vancomycin-resistant Enterococcus faecium 1059060 expressing vanA gene assessed as change in bacterial count at 4 ug/ml by time-kill assay; assay type: functional
[22] = Free fraction in healthy human male at 4 mg/kg, iv every 24 hrs by LC/MS/MS analysis; assay type: ADME, organism-based; design: dose 4 mg/kg, route intravenous; conditions: in vivo
Enterococcus faecalis [23] = assay: Bactericidal activity against vancomycin-susceptible Enterococcus faecalis ATCC 29212 assessed as change in bacterial count at 64 ug/ml by time-kill assay; assay type: functional
Enterococcus faecium [24] = assay: Bactericidal activity against vancomycin-resistant Enterococcus faecium ATCC 51559 expressing vanA gene assessed as change in bacterial count at 64 ug/ml by time-kill assay; assay type: functional
Enterococcus faecalis [25] = assay: Bactericidal activity against vancomycin-resistant Enterococcus faecalis ATCC 51299 expressing vanB gene assessed as change in bacterial count at 64 ug/ml by time-kill assay; assay type: functional
Enterococcus faecalis [26] = assay: Bactericidal activity against vancomycin-resistant Enterococcus faecalis 1058946 expressing vanA gene assessed as change in bacterial count at 64 ug/ml by time-kill assay; assay type: functional
Enterococcus faecium [27] = assay: Bactericidal activity against vancomycin-resistant Enterococcus faecium 1119175 expressing vanB gene assessed as change in bacterial count at 64 ug/ml by time-kill assay; assay type: functional
Enterococcus faecium [28] = assay: Bactericidal activity against vancomycin-resistant Enterococcus faecium 1059060 expressing vanA gene assessed as change in bacterial count at 64 ug/ml by time-kill assay; assay type: functional
Enterococcus faecalis [29] = assay: Bactericidal activity against vancomycin-susceptible Enterococcus faecalis ATCC 29212 assessed as change in bacterial count at 4 ug/ml by time-kill assay; assay type: functional
Enterococcus faecium [30] = assay: Bactericidal activity against vancomycin-resistant Enterococcus faecium ATCC 51559 expressing vanA gene assessed as change in bacterial count at 4 ug/ml by time-kill assay; assay type: functional
Enterococcus faecalis [31] = assay: Bactericidal activity against vancomycin-resistant Enterococcus faecalis ATCC 51299 expressing vanB gene assessed as change in bacterial count at 4 ug/ml by time-kill assay; assay type: functional
Enterococcus faecalis [32] = assay: Bactericidal activity against vancomycin-resistant Enterococcus faecalis 1058946 expressing vanA gene assessed as change in bacterial count at 4 ug/ml by time-kill assay; assay type: functional
[33] = Cmax in healthy human male at 600 mg, po every 12 hrs by LC/MS/MS analysis; assay type: ADME, organism-based; design: dose 600 mg, route oral; conditions: in vivo
Enterococcus faecalis [34] = assay: Bactericidal activity against vancomycin-susceptible Enterococcus faecalis ATCC 29212 assessed as change in bacterial count at 16 ug/ml by time-kill assay; assay type: functional
Enterococcus faecium [35] = assay: Bactericidal activity against vancomycin-resistant Enterococcus faecium ATCC 51559 expressing vanA gene assessed as change in bacterial count at 16 ug/ml by time-kill assay; assay type: functional
Enterococcus faecalis [36] = assay: Bactericidal activity against vancomycin-resistant Enterococcus faecalis ATCC 51299 expressing vanB gene assessed as change in bacterial count at 16 ug/ml by time-kill assay; assay type: functional
Enterococcus faecalis [37] = assay: Bactericidal activity against vancomycin-resistant Enterococcus faecalis 1058946 expressing vanA gene assessed as change in bacterial count at 16 ug/ml by time-kill assay; assay type: functional
Enterococcus faecium [38] = assay: Bactericidal activity against vancomycin-resistant Enterococcus faecium 1119175 expressing vanB gene assessed as change in bacterial count at 16 ug/ml by time-kill assay; assay type: functional
Enterococcus faecium [39] = assay: Bactericidal activity against vancomycin-resistant Enterococcus faecium 1059060 expressing vanA gene assessed as change in bacterial count at 16 ug/ml by time-kill assay; assay type: functional

CCCCCCCCCC(=O)N[C@@H](Cc1c[nH]c2ccccc12)C(=O)N[C@H](CC(N)=O)C(=O)N[C@@H](CC(=O)O)C(=O)N[C@@H]1C(=O)NCC(=O)N[C@@H](CCCN)C(=O)N[C@@H](CC(=O)O)C(=O)N[C@H](C)C(=O)N[C@@H](CC(=O)O)C(=O)NCC(=O)N[C@H](CO)C(=O)N[C@@H]([C@H](C)CC(=O)O)C(=O)N[C@@H](CC(=O)c2ccccc2N)C(=O)O[C@@H]1C
Cmax [1]: 64000 ng/mL | MIC (Enterococcus faecalis [2]): 2 µg/mL (≈ 1.23 µM) | MIC (Enterococcus faecium [3]): 2 µg/mL (≈ 1.23 µM) | MIC (Enterococcus faecalis [4]): 2 µg/mL (≈ 1.23 µM) | MIC (Enterococcus faecalis [5]): 2 µg/mL (≈ 1.23 µM) | MIC (Enterococcus faecium [6]): 4 µg/mL (≈ 2.47 µM) | MIC (Enterococcus faecium [7]): 1 µg/mL (≈ 0.617 µM) | MIC (Enterococcus faecalis [8]): 32 µg/mL | MIC (Enterococcus faecium [9]): 32 µg/mL | MIC (Enterococcus faecalis [10]): 32 µg/mL | MIC (Enterococcus faecalis [11]): 16 µg/mL | MIC (Enterococcus faecium [12]): 64 µg/mL | MIC (Enterococcus faecium [13]): 8 µg/mL | Ratio (Enterococcus faecalis [14]): 16 | Ratio (Enterococcus faecium [15]): 16 | Ratio (Enterococcus faecalis [16]): 16 | Ratio (Enterococcus faecalis [17]): 8 | Ratio (Enterococcus faecium [18]): 16 | Ratio (Enterococcus faecium [19]): 8 | log10CFU/ml (Enterococcus faecium [20]): 2.3 | log10CFU/ml (Enterococcus faecium [21]): -0.54 | fraction unbound at 24 h [22]: 0.08 | log10CFU/ml (Enterococcus faecalis [23]): 0.26 | log10CFU/ml (Enterococcus faecium [24]): 1.4 | log10CFU/ml (Enterococcus faecalis [25]): 1.4 | log10CFU/ml (Enterococcus faecalis [26]): -0.4 | log10CFU/ml (Enterococcus faecium [27]): 1.5 | log10CFU/ml (Enterococcus faecium [28]): -0.78 | log10CFU/ml (Enterococcus faecalis [29]): 1.9 | log10CFU/ml (Enterococcus faecium [30]): 2.4 | log10CFU/ml (Enterococcus faecalis [31]): 2.3 | log10CFU/ml (Enterococcus faecalis [32]): 2.5

CC(=O)NC[C@H]1CN(c2ccc(N3CCOCC3)c(F)c2)C(=O)O1 [LINEZOLID]
Cmax [33]: 16000 ng/mL | MIC (Enterococcus faecium [3]): 1 µg/mL (≈ 2.96 µM) | MIC (Enterococcus faecium [6]): 2 µg/mL (≈ 5.93 µM) | MIC (Enterococcus faecium [7]): 1 µg/mL (≈ 2.96 µM) | MIC (Enterococcus faecium [9]): 2 µg/mL | MIC (Enterococcus faecium [12]): 2 µg/mL | MIC (Enterococcus faecium [13]): 1 µg/mL | log10CFU/ml (Enterococcus faecium [20]): 0.2 | log10CFU/ml (Enterococcus faecium [21]): -0.35 | log10CFU/ml (Enterococcus faecalis [34]): 0.11 | log10CFU/ml (Enterococcus faecium [35]): -2 | log10CFU/ml (Enterococcus faecalis [36]): -0.35 | log10CFU/ml (Enterococcus faecalis [37]): 0.08 | log10CFU/ml (Enterococcus faecium [38]): -0.72 | log10CFU/ml (Enterococcus faecium [39]): -0.42 | log10CFU/ml (Enterococcus faecalis [29]): 0.13 | log10CFU/ml (Enterococcus faecium [30]): -0.63 | log10CFU/ml (Enterococcus faecalis [31]): -0.5 | log10CFU/ml (Enterococcus faecalis [32]): 0.78

From ChEMBL document CHEMBL1649467, “Impact of human serum albumin on oritavancin in vitro activity against enterococci” (Antimicrob Agents Chemother, 2009)
